Assays:
Estrogen receptor beta [1] = target: T1, Estrogen receptor beta (Homo sapiens, UniProt Q92731)
Description: Ability to activate estrogen receptor 2-mediated transcription.

Estrogen receptor [2] = target: T2, Estrogen receptor (Homo sapiens, UniProt P03372)
T2 sequence (P03372 whole entry): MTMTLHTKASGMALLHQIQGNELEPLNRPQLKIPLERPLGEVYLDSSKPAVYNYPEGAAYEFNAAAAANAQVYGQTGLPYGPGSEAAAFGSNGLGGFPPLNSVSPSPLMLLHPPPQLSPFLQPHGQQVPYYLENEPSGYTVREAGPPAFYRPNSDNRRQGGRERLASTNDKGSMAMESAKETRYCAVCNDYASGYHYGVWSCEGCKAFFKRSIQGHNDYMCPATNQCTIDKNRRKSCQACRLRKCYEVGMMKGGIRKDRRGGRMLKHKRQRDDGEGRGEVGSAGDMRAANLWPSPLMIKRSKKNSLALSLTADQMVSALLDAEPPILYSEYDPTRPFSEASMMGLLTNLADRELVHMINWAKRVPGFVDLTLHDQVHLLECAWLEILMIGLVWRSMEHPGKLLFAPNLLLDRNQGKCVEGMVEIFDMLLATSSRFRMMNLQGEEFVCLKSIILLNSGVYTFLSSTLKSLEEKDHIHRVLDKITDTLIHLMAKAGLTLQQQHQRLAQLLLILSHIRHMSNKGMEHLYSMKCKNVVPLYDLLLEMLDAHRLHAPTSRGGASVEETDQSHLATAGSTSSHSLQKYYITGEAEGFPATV
Description: Ability to activate estrogen receptor 1-mediated transcription.

Estrogen receptor [3] = target: T2, Estrogen receptor; remark: listed apart in the source
Description: Binding affinity towards estrogen receptor alpha by [3H]17-beta-estradiol displacement.

Estrogen receptor beta [4] = target: T1, Estrogen receptor beta; remark: listed apart in the source
Description: Binding affinity towards estrogen receptor beta by [3H]17-beta-estradiol displacement.

T1 sequence (Q92731 whole entry): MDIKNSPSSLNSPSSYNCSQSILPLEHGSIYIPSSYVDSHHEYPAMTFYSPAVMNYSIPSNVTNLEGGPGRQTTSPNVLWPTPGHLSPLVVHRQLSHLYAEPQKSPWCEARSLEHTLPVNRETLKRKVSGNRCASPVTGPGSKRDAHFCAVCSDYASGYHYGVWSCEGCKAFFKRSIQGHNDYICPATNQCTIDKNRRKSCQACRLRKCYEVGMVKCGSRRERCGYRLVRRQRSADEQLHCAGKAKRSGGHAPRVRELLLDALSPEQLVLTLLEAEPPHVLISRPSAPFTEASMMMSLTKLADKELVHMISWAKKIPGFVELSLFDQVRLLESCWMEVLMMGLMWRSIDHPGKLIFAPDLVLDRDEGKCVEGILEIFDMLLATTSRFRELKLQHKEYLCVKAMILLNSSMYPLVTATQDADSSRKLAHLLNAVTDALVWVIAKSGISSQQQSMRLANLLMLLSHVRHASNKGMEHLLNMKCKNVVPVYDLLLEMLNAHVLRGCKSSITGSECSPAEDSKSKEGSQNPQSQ

Row | Compound | EC50 (Estrogen receptor beta [1]) | EC50 (Estrogen receptor [2]) | IC50 (Estrogen receptor [3]) | IC50 (Estrogen receptor beta [4])
1 | CCCC1Oc2cc(O)ccc2N=C1c1ccc(O)cc1 (centres undefined) | 18 nM | 1700 nM | 1700 nM | 320 nM
2 | CC1(C)Oc2cc(O)ccc2N=C1c1ccc(O)cc1 | 140 nM | 3100 nM | 8600 nM | 5600 nM
3 | Oc1ccc2c(c1)CC1Oc3cc(O)ccc3N=C21 (centres undefined) | 77 nM | 900 nM | 5600 nM | 1400 nM
4 | Oc1ccc(C2=Nc3c(O)cc(O)cc3OC2)cc1 | 270 nM | 1800 nM | 33000 nM | 2800 nM
5 | CC1(C)Oc2cc(O)cc(O)c2N=C1c1ccc(O)c(Br)c1 | 120 nM | 1400 nM | 6000 nM | 1700 nM
6 | CC1Oc2cc(O)ccc2N=C1c1ccc(O)cc1 (centres undefined) | 30 nM | 64 nM | 1700 nM | 330 nM
7 | CCC1Oc2cc(O)ccc2N=C1c1ccc(O)cc1 (centres undefined) | 7 nM | 59 nM | 850 nM | 200 nM
8 | CCC1Oc2cc(O)cc(O)c2N=C1c1ccc(O)c(Br)c1 (centres undefined) | 180 nM | 2000 nM | 5300 nM | 1100 nM
9 | CCC1Oc2cc(O)cc(C)c2N=C1c1ccc(O)c(Br)c1 (centres undefined) | 8 nM | 170 nM | 180 nM | 90 nM
10 | Cc1cc(O)cc2c1N=C(c1ccc(O)c(Br)c1)C(C)O2 (centres undefined) | 16 nM | 46 nM | 320 nM | 90 nM
11 | Oc1ccc(C2=Nc3ccc(O)cc3OC2)cc1 | 160 nM | 6900 nM | 16000 nM | 2900 nM
12 | Oc1ccc2c(c1)CCC1Oc3cc(O)ccc3N=C21 (centres undefined) | 240 nM | 12000 nM | 6000 nM | 2600 nM
13 | CCC1Oc2cc(O)cc(O)c2N=C1c1ccc(O)cc1 (centres undefined) | 26 nM | 170 nM | 1200 nM | 120 nM
14 | CC1Oc2cc(O)cc(O)c2N=C1c1ccc(O)cc1 (single isomer, unassigned) | 50 nM | 140 nM | 2800 nM | 240 nM
15 | CC1Oc2cc(O)cc(O)c2N=C1c1ccc(O)cc1 (single isomer, unassigned; enantiomer B) | 74 nM | 290 nM | 6300 nM | 1100 nM
16 | CC1Oc2cc(O)cc(O)c2N=C1c1ccc(O)cc1 (stereo in doubt; 4i) | 47 nM | 150 nM | 2900 nM | 310 nM
